Measurements from patent EP1970046A1, “Use of purine and purine derivatives for treating hair” (priority 2007, dated 2008).
Like-named read-outs stand apart in the source and are kept apart here.

Tests used:
Assay type in all cases: cell-based
KGF [1] = assay: KGF release from dermal papilla cells (ELISA); settings: dermale Papillenzellen
Description: Der Keratinozyten Wachstumsfaktor Factor (KGF) Ist ein äußerst wichtiger Regulator des Haars. Bei einer potentiell wachstumsfördernden und das Haar stärkenden Aktivsubstanz kann von einer Steigerung der ins Medium ausgeschütteten Faktoren ausgegangen werden. Die Ausschüttung von KGF kann mit Hilfe von kommerziell erhältlichen ELISA-Kits quantifiziert werden. Dazu wurden die dermalen Papillenzellen über 24 Stunden mit Theophyllin inkubiert und die Konzentration des Wachstumsfaktors im Medium in beschriebener Weise quantifiziert. Tabelle 1: Relative Ausschüttung von KGF in [%] nach Behandlung der dermalen Papillenzellen im Vergleich zur unbehandelten Kontrollen.

KGF [2] = assay: KGF release from organotypic hair follicle cell cultures (ELISA); settings: organotypische Haarfollikelzellkulturen
Description: (§1) Hepatocyte Growth Factor (HGF) und Keratinocyte Growth Factor (KGF) sind wichtige Wachstumsfaktoren, die von der dermalen Papille ausgeschüttet werden, um die Proliferation der Haarschaftkeratinozyten, die für die Synthese der Haarkeratine verantwortlich sind, zu steuern. Sie sind außerdem charakteristische Marker für die Anagenphase, in der auch die Keratinsynthese maximal ist. Darüber hinaus ist zu beachten, dass bei der Haaralterung das Proliferationsvermögen der Haarfollikelzellen abnimmt. Die Ausschüttung von HGF sowie KGF kann mit Hilfe von kommerziell erhältlichen ELISA-Kits quantifiziert werden.
(§2) Dazu werden organotypische Haarfollikelzellkulturn über 72h mit Theophyllin inkubiert und die Konzentration der Wachstumsfaktoren im Medium in beschriebener Weise bestimmt. Tabelle 2: Relative Ausschüttung von HGF und KGF in [%] nach Behandlung des organotypischen Haarfollikelzellkulturen im Vergleich zu unbehandelten Kontrollen.

HGF = HGF release from organotypic hair follicle cell cultures (ELISA); settings: organotypische Haarfollikelzellkulturen
Description: as §1, §2

hha1 = assay: cells; settings: Keratinocyte, read-out: Haarkeratinexpression hha1 Mittelwert
Procedure: (§3) Zur Bestimmung des Einflusses von Theophyllin auf die Expression von Haarkeratinen wurde die differentielle Genexpression mittels quantitatitiver RT-PCR bestimmt. Nach Anzucht der Keratinozyten der äusseren Wurzelscheide (ORS-Keratinozyten) wurden diese für 3, 6 oder 24 h mit Theophyllin in Konzentration von 1.10 und 100 µM inkubiert.
(§4) Zur Durchführung der PCR wird zunächst mit Hilfe des RNeasy Mini Kits der Fa. Qiagen die RNA aus ORS-Keratinozyten isoliert und mittels reverser Transkription in cDNA umgeschrieben. Bei der anschließenden PCR Reaktion, die mit Hilfe genspezifischer Primer für die jeweiligen haarrelevanten Gene durchgeführt wird und die der Amplifikation der gesuchten Genabschnitte dient, wird die Bildung der PCR-Produkte online über ein Fluoreszenzsignal detektiert. Das Fluoreszenzsignal ist dabei proportional zur Menge des gebildeten PCR-Produktes. Je stärker die Expression eines bestimmten Gens Ist, desto größer Ist die Menge an gebildetem PCR-Produkt und um so höher ist das Fluoreszenzsignal. Zur Quantifizierung der Genexpression wird die unbehandelte Kontrolle gleich 1 gesetzt und die Expression der zu bestimmenden Gene darauf bezogen (x-fache Expression). Dabei werden Werte, die größer/gleich der 2fachen Expression oder kleiner/gleich der 0.5fachen Expression der unbehandelten Kontrolle sind als signifikant differentiell exprimiert eingestuft. Werte, die größer/gleich der 1,6fachen Expression oder kieiner/gleich der 0.66fachen Expression der unbehandelten Kontrolle sind als tendenziell differentiell exprimiert eingestuft. Die Ergebnisse sind in Tabelle 3 zusammengefasst. Tabelle 3: Haarkeratinexpression nach Behandlung von ORS-Keratinozyten in Zellkulturen im Vergleich zur unbehandelten Kontrolle.

hha3 [3] = assay: cells; settings: Keratinocyte, read-out: Haarkeratinexpression hha3 Mittelwert
Procedure: as §3, §4

hha4 [4] = assay: cells; settings: Keratinocyte, read-out: Haarkeratinexpression hha4 Mittelwert
Procedure: as §3, §4

hha6 = assay: cells; settings: Keratinocyte, read-out: Haarkeratinexpression hha6 Mittelwert
Procedure: as §3, §4

hhb6 [5] = assay: cells; settings: Keratinocyte, read-out: Haarkeratinexpression hhb6 Mittelwert
Procedure: as §3, §4

hha3 [6] = assay: cells; settings: read-out: Haarkeratinexpression hha3 Mittelwert
Description: as §4
(§5) Die Aktivierung der Keratinsynthese nach Applikation von Theophyllin wurde zusätzlich mit Hilfe organotypischer Haarfollikelzelikulturen untersucht, in denen verschiedene Zellen des Haarfollikels miteinander interagieren können. Die Untersuchungen erfolgten mit dem in Beispiel 3 erläuterten Verfahren der quantitativen Reverse Transkription Polymerase Kettenreaktion. Die Ergebnisse sind in Tabelle 4 zusammengefasst. Tabelle 4: Haarkeratinexpression nach Behandlung mit Theophyllin in organotpischen Haarfollikelzellkulturen im Vergleich zur unbehandelten Kontrolle.

hha4 [7] = assay: cells; settings: read-out: Haarkeratinexpression hha4 Mittelwert
Description: as §4, §5

hhb6 [8] = assay: cells; settings: read-out: Haarkeratinexpression hhb6 Mittelwert
Description: as §4, §5

Compound: Cn1c(=O)c2[nH]cnc2n(C)c1=O [Theophyllin]
- activity at 1 µM (KGF [1]; 24 h, 24 Stunden, 1µM, untreated control = 100, read-out: Relative Ausschüttung von KGF Mittelwert): 121%
- activity at 10 µM (KGF [1]; 24 h, 24 Stunden, 10µM, untreated control = 100, read-out: Relative Ausschüttung von KGF Mittelwert): 135%
- activity at 100 µM (KGF [1]; 24 h, 24 Stunden, 100µM, untreated control = 100, read-out: Relative Ausschüttung von KGF Mittelwert): 161%
- Freisetzung von KGF (KGF [1]; result in words): signifikant erhöhten Freisetzung
- Freisetzung von KGF (KGF [2]; 500 µM, result in words): tendenziell erhöhten Freisetzung
- activity at 500 µM (KGF [2]; 72h, untreated = 100 (35), spread in brackets, read-out: Relative Ausschüttung von KGF Mittelwert): 144%
- activity at 500 µM (HGF; HGF, 72h, untreated = 100 (14), spread in brackets, read-out: Relative Ausschüttung von HGF Mittelwert): 144%
- Freisetzung des Hepatozyten Wachstumsfaktor (HGF) (HGF; 500 µM, result in words): erhöhte Freisetzung
- fold induction at 1 µM (hha1; 3 h): 0.73
- fold induction at 10 µM (hha1; 3 h): 1.18
- fold induction at 100 µM (hha1; 3 h): 1.38
- fold induction at 1 µM (hha1; 6 h): 0.9
- fold induction at 10 µM (hha1; 6 h): 0.92
- fold induction at 100 µM (hha1; 6 h): 1.22
- fold induction at 1 µM (hha1; 24 h): 1.3
- fold induction at 10 µM (hha1; 24 h): 1.4
- fold induction at 100 µM (hha1; 24 h): 2.49
- fold induction at 1 µM (hha3 [3]; 3 h): 0.86
- fold induction at 10 µM (hha3 [3]; 3 h): 1.47
- fold induction at 100 µM (hha3 [3]; 3 h): 2.47
- fold induction at 1 µM (hha3 [3]; 6 h): 0.8
- fold induction at 10 µM (hha3 [3]; 6 h): 0.87
- fold induction at 100 µM (hha3 [3]; 6 h): 1.25
- fold induction at 1 µM (hha3 [3]; 24 h): 1.2
- fold induction at 10 µM (hha3 [3]; 24 h): 1.41
- fold induction at 100 µM (hha3 [3]; 24 h): 2.75
- fold induction at 1 µM (hha4 [4]; 3 h): 0.83
- fold induction at 10 µM (hha4 [4]; 3 h): 1.4
- fold induction at 100 µM (hha4 [4]; 3 h): 2.41
- fold induction at 1 µM (hha4 [4]; 6 h): 0.81
- fold induction at 10 µM (hha4 [4]; 6 h): 0.88
- fold induction at 100 µM (hha4 [4]; 6 h): 1.31
- fold induction at 1 µM (hha4 [4]; 24 h): 1.27
- fold induction at 10 µM (hha4 [4]; 24 h): 1.48
- fold induction at 100 µM (hha4 [4]; 24 h): 2.65
- fold induction at 1 µM (hha6; 3 h): 0.45
- fold induction at 10 µM (hha6; 3 h): 0.59
- fold induction at 100 µM (hha6; 3 h): 0.28
- fold induction at 1 µM (hha6; 6 h): 1.12
- fold induction at 10 µM (hha6; 6 h): 0.42
- fold induction at 100 µM (hha6; 6 h): 0.57
- fold induction at 1 µM (hha6; 24 h): 3.19
- fold induction at 10 µM (hha6; 24 h): 2.14
- fold induction at 100 µM (hha6; 24 h): 1.61
- fold induction at 1 µM (hhb6 [5]; 3 h): 1.09
- fold induction at 10 µM (hhb6 [5]; 3 h): 1.12
- fold induction at 100 µM (hhb6 [5]; 3 h): 1.78
- fold induction at 1 µM (hhb6 [5]; 6 h): 0.8
- fold induction at 10 µM (hhb6 [5]; 6 h): 0.76
- fold induction at 100 µM (hhb6 [5]; 6 h): 1.23
- fold induction at 1 µM (hhb6 [5]; 24 h): 1.34
- fold induction at 10 µM (hhb6 [5]; 24 h): 1.28
- fold induction at 100 µM (hhb6 [5]; 24 h): 1.98
- fold induction at 10 µM (hha3 [6]; 6 h): 0.76
- fold induction at 100 µM (hha3 [6]; 6 h): 0.76
- fold induction at 10 µM (hha3 [6]; 24 h): 2.27
- fold induction at 100 µM (hha3 [6]; 24 h): 3
- fold induction at 10 µM (hha4 [7]; 6 h): 0.91
- fold induction at 100 µM (hha4 [7]; 6 h): 1.56
- fold induction at 10 µM (hha4 [7]; 24 h): 2.08
- fold induction at 100 µM (hha4 [7]; 24 h): 1.88
- fold induction at 10 µM (hhb6 [8]; 6 h): 1.28
- fold induction at 100 µM (hhb6 [8]; 6 h): 2.06
- fold induction at 10 µM (hhb6 [8]; 24 h): 1.81
- fold induction at 100 µM (hhb6 [8]; 24 h): 1.68
